Assay results published in US20240024365A1, “POTENTIATION OF BONE MARROW CELL ACTIVITY BY COADMINISTRATION WITH OXYTOCIN” (CREATIVE MEDICAL TECHNOLOGIES, INC., priority 2022, published 2024).

Legend:
[1] = test system: human umbilical vein endothelial cell (HUVEC); experiment: HUVEC proliferation in vitro; assay type: cell-based; details: compared among 73 factors tested
Procedure: (§1) Methods: ProCell(oxytocin) was assessed for ability to stimulate human umbilical vein endothelial cell (HUVEC) proliferation in vitro. Selected compounds where tested for ability to stimulate colony and tube formation. In vivo angiogenic activity was tested by administration of bone marrow mononuclear cells alone, or ProCell-treated bone marrow mononuclear cells in the hindlimb ischemia assay.

hindlimb ischemia = experiment: Hindlimb ischemia assay (femoral artery ligation), limb survival; assay type: in vivo, mice
Procedure: Methods: ProCell(oxytocin) was assessed for ability to stimulate human umbilical vein endothelial cell (HUVEC) proliferation in vitro. Selected compounds where tested for ability to stimulate colony and tube formation. In vivo angiogenic activity was tested by administration of bone marrow mononuclear cells alone, or ProCell-treated bone marrow mononuclear cells in the hindlimb ischemia assay. Bone marrow mononuclear cells where obtained from syngeneic mice. Cells where administered at a concentration of 1 million cells per leg intramuscularly on days 0, 2, and 4, Oxytocin was injected in the same area on the same days at a concentration of 0.1 IU per mouse. Injury was induced by ligation of the femoral artery and neurotrophic injury was induced. Limb survival was quantified.

critical limb ischemia = experiment: Pilot study in patients with critical limb ischemia; assay type: in vivo, human patients
Procedure: Three patients suffering from critical limb ischemia were recruited. Patients matched the following inclusion criteria. a. Unreconstructable arterial disease was determined by a vascular surgeon who is not participating in the study. Unreconstructable arterial disease is defined by atherocclusive lesions within the arterial tree of the extremity that due to extent or morphology are not amenable to surgical bypass or PTCA and stenting. b. Objective evidence of severe peripheral arterial disease includes an ankle brachial index (ABI) of less than 0.55, and/or a resting toe brachial index (TBI) of […]. c. Patients must be competent to give consent. d. No history of malignant disease except for nonmelanoma skin cancer, no suspicious findings on chest x-ray, mammography (women over age 35), Papanicolaou smear (women over age 40), a normal fecal occult blood (over age 50) and a normal prostate specific antigen (men over age 45). Patients were injected with 10(8) bone-marrow mononuclear cells/aspirate, and administration of ProCell(oxytocin) was performed concurrently. Injections were performed using 10 million cells per injection, with 10 injections locally at the area of failed perfusion in a 10 cm×10 cm area in the gastrocnemius muscle. Ankle Brachial index was measured by comparing the ankle and brachial pressure.

[2] = test system: experimental autoimmune encephalomyelitis (EAE); experiment: SJL/J model of experimental autoimmune encephalomyelitis (EAE), syngeneic bone marrow cells cultured in ProCell; assay type: in vivo
Procedure: (§2) Methods: Immune modulatory activity of ProCell (oxytocin) was assessed by treatment of bone marrow mononuclear cells with ProCell (oxytocin) and subsequently assayed for proliferative ability and cytokine in response to CD3/CD28 stimulation. The concentration and incubation time of ProCell (oxytocin) identified for maximal immune modulatory effect was used to treat syngeneic bone marrow cells prior to implantation in the SJL/J model of EAE. Cell transplant experiments involving transfer of mesenchymal stem cells (CD105), monocytes (CD14), T cells (CD3) and B cells (CD20) where performed to identify the cellular population responsible for disease protective effect.

[3] = test system: CD3/CD28 stimulated T cell proliferation; experiment: CD3/CD28 stimulation of ProCell (oxytocin) treated bone marrow mononuclear cells: proliferation and cytokines; assay type: cell-based
Procedure: as §2

[4] = test system: bone marrow mononuclear cells / endothelial progenitors; experiment: Endothelial colony and tube formation of bone marrow cells; assay type: cell-based, human; details: for Endothelial colony formation: bone marrow cells incubated in ProCell, semi-solid media with endothelial differentiation cocktail
Procedure: as §1
Bone marrow was aspirated from patients 3 patients 18-25 years old (Young Patients) and 3 patients 65-80 years old (Old Patients). The cells were either incubated in saline for 30 minutes or incubated in ProCell(oxytocin). Bone marrow cells were evaluated. Evaluation of colony formation was performed by plating mononuclear cells in semi-solid media containing endothelial differentiation cocktail. Number of colonies where counted.

[5] = test system: allogeneic peripheral blood mononuclear cells (mixed lymphocyte reaction); experiment: Mixed lymphocyte reaction (MLR) with ProCell (oxytocin) treated cord blood CD14 monocytes; assay type: cell-based, human; details: for Proliferation in MLR: ProCell treated CD14 monocytes added to MLR, tritiated thymidine; for Treg (FoxP3) generation in MLR: flow cytometry
Procedure: Methods: UCBMNC where treated with ProCell (oxytocin) and monocytic populations where extracted by CD14 Magnetic Activated Cell Separation (MACS). Immune modulatory activity of isolated cells was examined by coculture with allogeneic lymphocytes, as well as added to ongoing mixed lymphocyte reaction (MLR). Proliferation and cytokine production was assessed. Furthermore generation of T regulatory cells was examined by flow cytometry for FoxP3 and ability to suppress T cell proliferation stimulated by CD3/CD28.
Cryopreserved human umbilical cord mononuclear cells (UB-MNCs) were obtained from All Cells, LLC. Immediately prior to the experiment the UBMNC s were thawed in a 37° C. water bath for about one minute and then washed twice in 10 ml PBS with 100 μl DNase (Sigma #D4527-40KU, 1 mg/ml). The number of viable cells was determined using the trypan blue exclusion method. Cell viability generally ranged from 80% to 90%.
Using magnetic antibody cell sorting (MACS), UB-MNCs were selected CD14+ monocytes, the MNC were centrifuged at 1000 rpm×10 minutes, the supernatant aspirated and the cells resuspended in 80 μl of buffer per […] and incubated at 4° C. for 15 min. Antibody conjugated paramagnetic microbeads CD14 labeled beads (cat #130-050-201, Miltenyi Biotechwere used to enrich for monocytes. After incubation, the cells were washed with buffer and centrifuged at 1000 rpm for 10 min. The cells were resuspended in 500 μl of buffer, then passed through a magnetic column that trapped the paramagnetic beads and the cells they were attached to (AutoMacs Pro). The magnetic field was disengaged and the cells collected.
CD14 cells were cultured in ProCell (oxytocin) at various concentrations in Opti-Mem media with 10% fetal calf serum for 1 hour at 37 Celsius. Cells where subsequently washed in Phosphate Buffered Saline and plated in vitro. Assessment of Treg generation was performed in mixed lymphocyte reaction with allogeneic peripheral blood mononuclear cells. The culture lasted either 48 or 72 hours and various concentrations of ProCell (oxytocin) treated cord blood CD14 expressing cells where added to the responding PBMC. Evaluation of proliferation was performed using the tritiated thymidine method, and cytokine production was measured using ELISA.
Additionally, the stimulation of FoxP3 expression was performed by flow cytometry using fixation and permeabiliization method.

[6] = bone marrow cells with concurrent ProCell, patients
[7] = ProCell treated monocytes, ELISA

## CC[C@H](C)[C@@H]1NC(=O)[C@H](Cc2ccc(O)cc2)NC(=O)[C@@H](N)CSSC[C@@H](C(=O)N2CCC[C@H]2C(=O)N[C@@H](CC(C)C)C(=O)NCC(N)=O)NC(=O)[C@H](CC(N)=O)NC(=O)[C@H](CCC(N)=O)NC1=O [ProCell, Oxytocin]
[1]
  Stimulation of HUVEC proliferation: highest stimulatory activity
Hindlimb ischemia; ProCell incubated bone marrow cells
  Limb loss: prevents limb loss
Hindlimb ischemia; ProCell incubated bone marrow cells, listed as ProCell(oxytocin)
  Limb loss: prevent limb loss
Hindlimb ischemia; bone marrow mononuclear cells/aspirate incubated with ProCell
  Neoangiogenesis in hindlimb ischemia model: enhanced ability to stimulate neoangiogenesis
Hindlimb ischemia; localized separate intramuscular administration of ProCell and bone marrow mononuclear cells/aspirate
  Limb loss: prevention of limb loss
Critical limb ischemia; 10(8) bone-marrow mononuclear cells/aspirate with concurrent ProCell
  Amputation during the study period: No patients reported amputation
Critical limb ischemia; bone marrow cells with ProCell
  Critical limb ischemia, before and after photographs: improving critical limb ischemia
Critical limb ischemia; [6]
  Ankle brachial index: improving
  Ankle pressure: improving
[2]; animals treated with ProCell cultured cells
  Relapse of EAE: accelerated reduction of relapse
[2]; animals treated with ProCell cultured syngeneic bone marrow cells
  Inhibition of EAE: Dose dependent inhibition of EAE
[2]; correlated with disease inhibition
  FoxP3 expressing cells: increased FoxP3 expressing cells
[3]; CD3/CD28 stimulation
  IFN-gamma production: inhibition
  IL-10 production: upregulation
  IL-12 production: inhibition
  TGF-beta production: upregulation
[3]; bone marrow mononuclear cells treated with ProCell
  CD3/CD28 stimulated T cell proliferation: inhibitory effect
[4]
  Endothelial colony formation: increases endothelial colony formation
[4]; listed as ProCell(oxytocin)
  Endothelial colony formation: potent induction
[4]; endothelial progenitors and non-purified bone marrow mononuclear cells
  Tube formation: potent induction
[5]
  Proliferation in MLR: suppress proliferation
[5]; listed as ProCell (oxytocin)
  Proliferation in MLR: actively inhibited ongoing MLR
[5]; ProCell treated monocytes
  TGF-beta in MLR: augmentation
  Treg (FoxP3) generation in MLR: enhances Treg (FoxP3)
[5]; [7]
  IFN-gamma in MLR: suppress IFN-Gamma
  IL-10 in MLR: enhances IL-10
[5]; ProCell treated monocytes, ELISA, listed as ProCell (oxytocin)
  IL-10 in MLR: augmentation
[5]; ProCell treated monocytes, listed as ProCell (oxytocin)
  Treg (FoxP3) generation in MLR: in vitro generation of active T regulatory cells was observed
[5]; coculture of ProCell cultured CD14 cells with allogeneic lymphocytes
  Stimulation of allogeneic T cell proliferation: did not stimulate allogeneic T cell proliferation
